According to patent publication US20230304996A1, “MICROFLUIDIC SYSTEM TO CONTROL PERFUSION, DIFFUSION AND COLLECTION OF MOLECULES OVER LONG PERIODS IN AN EX-VIVO SKIN MODEL” (GENOSKIN, priority 2020, published 2023):

Assay: Diffusion of infused low molecular weight contrast agents in NativeSkin and FlowSkin models (surface colour intensity)
Assay type: in vitro ADME
Conditions: infused at 0.5 mg/mL, first hours of infusion; FLOWSKIN (with hypodermis) compared with NATIVESKIN (without)
Experimental: In order to characterize diffusion during the first hours of infusion in the NativeSkin° and in the FlowSkin®model, two low molecular weight contrast agents (KI: potassium Iodide, […]) and V patent blur (E131, 1 kDa) at 0.5 mg/mL have been infused in both models.
The result was similar with V patent blue (E131). Accordingly, it seems that the hypoderm facilitate the diffusion of low molecular weight agent within the FLOWSKIN® model.

- color intensity visible at the surface of the FLOWSKIN model versus the NATIVESKIN model: growing faster
Compound: [I-].[K+] [KI, potassium Iodide]
